Results from patent EP4745135A1 (Gluetacs Therapeutics (Shanghai) Co., Ltd., priority 2023, dated 2025).

Assays:
IKZF3 = biological target: T1, IKZF3 (Homo sapiens, UniProt Q96SW2+Q9UKT9); assay: Western blot, degradation of substrate protein in hPBMCs; type: cell-based
T1 construct: effects of the compounds of the present disclosure on the expression of target proteins in cells; endogenous in cells; host or cells: human PBMCs (Milecell Biotechnologies)

CK1α = biological target: T2, CK1α (Homo sapiens, UniProt P48729+Q96SW2); assay: as above; type: cell-based
T2 construct: effects of the compounds of the present disclosure on the expression of target proteins in cells; endogenous in cells; host or cells: human PBMCs (Milecell Biotechnologies)
T2 sequence (P48729 whole entry): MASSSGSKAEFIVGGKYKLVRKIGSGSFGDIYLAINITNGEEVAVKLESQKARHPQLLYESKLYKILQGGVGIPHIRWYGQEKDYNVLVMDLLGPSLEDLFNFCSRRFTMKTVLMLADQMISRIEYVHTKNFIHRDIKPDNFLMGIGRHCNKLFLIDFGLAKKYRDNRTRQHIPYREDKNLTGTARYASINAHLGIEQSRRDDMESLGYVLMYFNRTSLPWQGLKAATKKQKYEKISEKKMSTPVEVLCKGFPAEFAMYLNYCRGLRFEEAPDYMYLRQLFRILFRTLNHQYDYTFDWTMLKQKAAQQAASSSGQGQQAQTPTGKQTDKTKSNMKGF
T2 sequence (Q96SW2 whole entry): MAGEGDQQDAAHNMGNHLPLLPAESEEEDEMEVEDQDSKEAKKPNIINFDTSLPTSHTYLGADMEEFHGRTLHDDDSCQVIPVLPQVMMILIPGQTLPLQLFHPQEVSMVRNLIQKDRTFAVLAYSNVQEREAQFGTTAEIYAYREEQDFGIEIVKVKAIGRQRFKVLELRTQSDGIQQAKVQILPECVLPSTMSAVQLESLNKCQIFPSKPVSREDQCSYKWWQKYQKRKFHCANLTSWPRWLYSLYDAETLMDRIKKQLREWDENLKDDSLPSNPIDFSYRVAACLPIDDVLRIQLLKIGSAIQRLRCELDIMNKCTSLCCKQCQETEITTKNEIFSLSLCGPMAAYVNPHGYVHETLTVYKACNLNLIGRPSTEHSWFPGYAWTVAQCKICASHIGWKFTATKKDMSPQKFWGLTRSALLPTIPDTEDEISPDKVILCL
T2 sequence (Q16531 whole entry partner): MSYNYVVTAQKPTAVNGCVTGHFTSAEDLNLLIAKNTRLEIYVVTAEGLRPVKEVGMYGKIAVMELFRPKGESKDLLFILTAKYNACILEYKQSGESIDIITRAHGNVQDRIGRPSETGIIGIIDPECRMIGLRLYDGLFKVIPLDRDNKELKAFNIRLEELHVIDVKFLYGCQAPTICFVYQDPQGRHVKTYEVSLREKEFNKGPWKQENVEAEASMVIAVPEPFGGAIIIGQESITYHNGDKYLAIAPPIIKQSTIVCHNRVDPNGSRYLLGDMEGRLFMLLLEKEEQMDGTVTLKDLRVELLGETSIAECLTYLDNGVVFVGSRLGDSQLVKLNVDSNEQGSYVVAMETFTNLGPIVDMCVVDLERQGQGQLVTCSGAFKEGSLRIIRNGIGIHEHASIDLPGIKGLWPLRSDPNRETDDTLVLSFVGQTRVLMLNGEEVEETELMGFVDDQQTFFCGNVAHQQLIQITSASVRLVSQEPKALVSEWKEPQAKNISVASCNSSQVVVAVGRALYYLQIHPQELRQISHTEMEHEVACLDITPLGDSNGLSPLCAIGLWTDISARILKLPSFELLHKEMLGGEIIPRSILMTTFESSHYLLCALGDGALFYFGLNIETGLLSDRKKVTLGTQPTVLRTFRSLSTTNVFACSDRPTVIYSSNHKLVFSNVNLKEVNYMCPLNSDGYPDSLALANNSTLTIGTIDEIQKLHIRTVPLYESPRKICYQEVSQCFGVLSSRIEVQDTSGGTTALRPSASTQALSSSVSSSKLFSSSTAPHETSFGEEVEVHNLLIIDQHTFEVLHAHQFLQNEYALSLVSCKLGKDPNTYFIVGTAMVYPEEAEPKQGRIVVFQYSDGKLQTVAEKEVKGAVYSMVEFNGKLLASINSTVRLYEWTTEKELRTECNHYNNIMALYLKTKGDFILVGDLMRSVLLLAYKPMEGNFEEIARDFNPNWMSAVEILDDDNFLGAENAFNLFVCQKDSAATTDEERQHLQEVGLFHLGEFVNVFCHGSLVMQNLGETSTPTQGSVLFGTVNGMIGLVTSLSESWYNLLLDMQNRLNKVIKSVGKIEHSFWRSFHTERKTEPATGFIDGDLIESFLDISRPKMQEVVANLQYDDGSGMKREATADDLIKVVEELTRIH

WEE1 = biological target: T3, WEE1 (Homo sapiens, UniProt P30291+Q96SW2); assay: as above; type: cell-based
T3 construct: effects of the compounds of the present disclosure on the expression of target proteins in cells; endogenous in cells; host or cells: human PBMCs (Milecell Biotechnologies)
T3 sequence (P30291 whole entry): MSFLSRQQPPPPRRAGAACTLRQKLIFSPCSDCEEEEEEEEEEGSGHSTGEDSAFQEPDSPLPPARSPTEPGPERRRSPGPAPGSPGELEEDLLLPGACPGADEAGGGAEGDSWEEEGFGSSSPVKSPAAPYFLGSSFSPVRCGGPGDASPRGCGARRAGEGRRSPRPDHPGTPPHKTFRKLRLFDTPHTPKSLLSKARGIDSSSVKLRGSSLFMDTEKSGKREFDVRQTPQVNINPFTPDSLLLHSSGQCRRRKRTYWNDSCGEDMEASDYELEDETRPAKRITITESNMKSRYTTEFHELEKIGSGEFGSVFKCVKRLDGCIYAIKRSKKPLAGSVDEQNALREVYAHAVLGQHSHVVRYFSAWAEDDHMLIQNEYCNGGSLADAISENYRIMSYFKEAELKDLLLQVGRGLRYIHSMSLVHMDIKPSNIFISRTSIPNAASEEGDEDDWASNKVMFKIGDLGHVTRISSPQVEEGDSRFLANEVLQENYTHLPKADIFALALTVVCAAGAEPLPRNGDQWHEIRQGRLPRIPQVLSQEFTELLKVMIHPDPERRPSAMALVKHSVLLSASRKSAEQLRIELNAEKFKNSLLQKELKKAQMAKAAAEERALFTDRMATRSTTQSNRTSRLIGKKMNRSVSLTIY
T3 sequence (Q96SW2 whole entry): as the sequence (Q96SW2 whole entry) above
T3 sequence (Q16531 whole entry partner): as the sequence (Q16531 whole entry partner) above

IKZF2 = biological target: T4, IKZF2 (Homo sapiens, UniProt Q96SW2+Q9UKS7); assay: as above; type: cell-based
T4 construct: effects of the compounds of the present disclosure on the expression of target proteins in cells; endogenous in cells; host or cells: human PBMCs (Milecell Biotechnologies)
T4 sequence (Q9UKS7 whole entry): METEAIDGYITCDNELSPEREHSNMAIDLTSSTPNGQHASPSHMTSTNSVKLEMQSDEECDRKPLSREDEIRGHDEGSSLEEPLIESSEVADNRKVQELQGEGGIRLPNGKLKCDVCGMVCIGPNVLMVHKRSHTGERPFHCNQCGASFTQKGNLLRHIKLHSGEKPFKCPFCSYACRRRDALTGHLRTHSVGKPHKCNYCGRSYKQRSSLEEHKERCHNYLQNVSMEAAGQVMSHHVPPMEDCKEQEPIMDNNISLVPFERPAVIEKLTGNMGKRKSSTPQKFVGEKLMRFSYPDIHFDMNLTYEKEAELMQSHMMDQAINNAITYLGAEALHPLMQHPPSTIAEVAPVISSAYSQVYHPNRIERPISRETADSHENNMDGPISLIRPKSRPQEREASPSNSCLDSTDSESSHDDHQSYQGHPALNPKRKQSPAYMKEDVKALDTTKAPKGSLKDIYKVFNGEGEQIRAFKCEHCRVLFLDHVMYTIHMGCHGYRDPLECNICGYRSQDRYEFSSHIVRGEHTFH
T4 sequence (Q96SW2 whole entry): as the sequence (Q96SW2 whole entry) above
T4 sequence (Q16531 whole entry partner): as the sequence (Q16531 whole entry partner) above

IKZF1 = biological target: T5, IKZF1 (Homo sapiens, UniProt Q13422+Q96SW2); assay: as above; type: cell-based
T5 construct: effects of the compounds of the present disclosure on the expression of target proteins in cells; endogenous in cells; host or cells: human PBMCs (Milecell Biotechnologies)
T5 sequence (Q13422 whole entry): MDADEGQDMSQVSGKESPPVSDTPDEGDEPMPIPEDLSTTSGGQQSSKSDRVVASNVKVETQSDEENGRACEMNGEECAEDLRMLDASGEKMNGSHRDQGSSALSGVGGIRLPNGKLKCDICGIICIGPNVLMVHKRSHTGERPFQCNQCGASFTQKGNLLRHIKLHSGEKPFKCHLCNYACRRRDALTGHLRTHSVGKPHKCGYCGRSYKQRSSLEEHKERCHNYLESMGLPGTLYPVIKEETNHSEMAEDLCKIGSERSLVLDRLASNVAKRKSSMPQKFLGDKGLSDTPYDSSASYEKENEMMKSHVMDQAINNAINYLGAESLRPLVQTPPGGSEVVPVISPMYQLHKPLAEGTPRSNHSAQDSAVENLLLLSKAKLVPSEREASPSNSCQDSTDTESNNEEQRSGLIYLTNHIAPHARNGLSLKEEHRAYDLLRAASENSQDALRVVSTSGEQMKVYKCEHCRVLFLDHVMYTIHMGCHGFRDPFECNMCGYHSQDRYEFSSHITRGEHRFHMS
T5 sequence (Q96SW2 whole entry): as the sequence (Q96SW2 whole entry) above
T5 sequence (Q16531 whole entry partner): as the sequence (Q16531 whole entry partner) above

GSPT1 = assay: as above; type: cell-based, Human
[1] = biological target: T6, human Cereblon WT GST-tagged protein (Homo sapiens, UniProt Q96SW2); assay: CRBN-binding affinity, HTRF (CEREBLON BINDING kit); details: for inhibition at 0.5 µM: read-out: Inhibition Rate at 0.5 µM (%); for inhibition at 2 µM: read-out: Inhibition Rate at 2 µM (%)
T6 construct: purchased CISBIO 64BDCRBNPEH
T6 sequence (Q96SW2 whole entry): as the sequence (Q96SW2 whole entry) above

[2] = Western blot, 24 hours of compound treatment, compounds tested at 50 nM and 500 nM (concentration for the table not stated)
[3] = 24 hours treatment, compounds at 50 nM and 500 nM (concentration behind the class not stated)

T1 sequence (Q9UKT9 whole entry): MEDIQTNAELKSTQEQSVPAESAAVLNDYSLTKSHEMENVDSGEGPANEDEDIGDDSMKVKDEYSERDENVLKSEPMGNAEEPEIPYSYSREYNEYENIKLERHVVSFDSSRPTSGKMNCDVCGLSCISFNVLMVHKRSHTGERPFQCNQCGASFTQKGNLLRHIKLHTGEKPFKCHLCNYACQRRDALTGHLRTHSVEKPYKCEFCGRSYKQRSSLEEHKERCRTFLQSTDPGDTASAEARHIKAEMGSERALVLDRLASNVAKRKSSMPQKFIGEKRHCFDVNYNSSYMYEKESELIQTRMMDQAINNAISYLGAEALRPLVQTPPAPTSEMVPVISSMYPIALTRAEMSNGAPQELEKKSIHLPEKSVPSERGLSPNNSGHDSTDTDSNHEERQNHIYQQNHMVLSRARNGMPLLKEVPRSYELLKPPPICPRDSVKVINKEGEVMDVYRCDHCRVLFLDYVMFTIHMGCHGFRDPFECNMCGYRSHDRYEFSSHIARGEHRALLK
T1 sequence (Q96SW2 whole entry): as the sequence (Q96SW2 whole entry) above
T1 sequence (Q16531 whole entry partner): as the sequence (Q16531 whole entry partner) above

Row | inhibition at 0.5 µM [1] [%] | inhibition at 2 µM [1] [%] | SMILES | IKZF3 substrate protein remaining % (IKZF3; [2]) | CK1α substrate protein remaining % (CK1α; [2]) | Wee1 substrate protein remaining % (WEE1; [2]) | IKZF2 substrate protein remaining % (IKZF2; [2]) | IKZF 1 substrate protein remaining % (IKZF1; [2]) | GSPT1 substrate protein remaining % (GSPT1; [2]) | IKZF3 substrate protein remaining % (IKZF3; [3]) | CK1α substrate protein remaining % (CK1α; [3]) | Wee1 substrate protein remaining % (WEE1; [3]) | IKZF2 substrate protein remaining % (IKZF2; [3]) | IKZF 1 substrate protein remaining % (IKZF1; [3]) | GSPT1 substrate protein remaining % (GSPT1; [3])
1 | 60 to 80 | 80 to 100 | O=C1CCC(N2Cc3cc(CN4CCN(c5ccncc5)CC4)ccc3C2=S)C(=O)N1 (stereo not drawn) [GT-09233, 3-(5-((4-(pyridin-4-yl)piperazin-1-yl)methyl)-1-thioxoisoindolin-2-yl)piperidine-2,6-dione] | A (0% ≤ substrate protein remaining % ≤ 80%) | A (0% ≤ substrate protein remaining % ≤ 80%) | A (0% ≤ substrate protein remaining % ≤ 80%) | A (0% ≤ substrate protein remaining % ≤ 80%) | A (0% ≤ substrate protein remaining % ≤ 80%) | A (0% ≤ substrate protein remaining % ≤ 80%) | – | – | – | – | – | –
2 | 60 to 80 | 80 to 100 | Cc1cc(N2CCN(Cc3ccc4c(c3)CN(C3CCC(=O)NC3=O)C4=S)CC2)ccn1 (stereo not drawn) [GT-09234, 3-(5-((4-(2-methylpyridin-4-yl)piperazin-1-yl)methyl)-1-thioxoisoindolin-2-yl)piperidine-2,6-dione] | A (0% ≤ substrate protein remaining % ≤ 80%) | A (0% ≤ substrate protein remaining % ≤ 80%) | A (0% ≤ substrate protein remaining % ≤ 80%) | A (0% ≤ substrate protein remaining % ≤ 80%) | A (0% ≤ substrate protein remaining % ≤ 80%) | A (0% ≤ substrate protein remaining % ≤ 80%) | – | – | – | – | – | –
3 | 60 to 80 | 80 to 100 | O=C1CCC(N2Cc3cc(CN4CCN(c5nccc(F)c5F)CC4)ccc3C2=S)C(=O)N1 (stereo not drawn) [GT-09235, 3-(5-((4-(3,4-difluoropyridin-2-yl)piperazin-1-yl)methyl)-1-thioxoisoindolin-2-yl)piperidine-2,6-dione] | A (0% ≤ substrate protein remaining % ≤ 80%) | A (0% ≤ substrate protein remaining % ≤ 80%) | B (80%< substrate protein remaining %≤ 100%) | A (0% ≤ substrate protein remaining % ≤ 80%) | B (80%< substrate protein remaining %≤ 100%) | A (0% ≤ substrate protein remaining % ≤ 80%) | – | – | – | – | – | –
4 | 60 to 80 | 80 to 100 | O=C1CCC(N2Cc3cc(CN4CCN(c5ccncc5Cl)CC4)ccc3C2=S)C(=O)N1 (stereo not drawn) [GT-09238, 3-(5-((4-(3-chloropyridin-4-yl)piperazin-1-yl)methyl)-1-thioxoisoindolin-2-yl)piperidine-2,6-dione] | A (0% ≤ substrate protein remaining % ≤ 80%) | A (0% ≤ substrate protein remaining % ≤ 80%) | B (80%< substrate protein remaining %≤ 100%) | A (0% ≤ substrate protein remaining % ≤ 80%) | B (80%< substrate protein remaining %≤ 100%) | A (0% ≤ substrate protein remaining % ≤ 80%) | – | – | – | – | – | –
5 | 60 to 80 | 80 to 100 | O=C1CCC(N2Cc3cc(CN4CCN(c5ccnc(Br)c5F)CC4)ccc3C2=S)C(=O)N1 (stereo not drawn) [GT-09241, 3-(5-((4-(2-bromo-3-fluoropyridin-4-yl)piperazin-1-yl)methyl)-1-thioxoisoindolin-2-yl)piperidine-2,6-dione] | – | – | – | – | – | – | B (80%< substrate protein remaining %≤ 100%) | B (80%< substrate protein remaining %≤ 100%) | B (80%< substrate protein remaining %≤ 100%) | B (80%< substrate protein remaining %≤ 100%) | B (80%< substrate protein remaining %≤ 100%) | A (0% ≤ substrate protein remaining % ≤ 80%)
6 | 60 to 80 | 80 to 100 | O=C1CCC(N2Cc3cc(CN4CCN(c5nccc(Cl)c5F)CC4)ccc3C2=S)C(=O)N1 (stereo not drawn) [GT-09244, 3-(5-((4-(4-chloro-3-fluoropyridin-2-yl)piperazin-1-yl)methyl)-1-thioxoisoindolin-2-yl)piperidine-2,6-dione] | – | – | – | – | – | – | B (80%< substrate protein remaining %≤ 100%) | B (80%< substrate protein remaining %≤ 100%) | B (80%< substrate protein remaining %≤ 100%) | B (80%< substrate protein remaining %≤ 100%) | B (80%< substrate protein remaining %≤ 100%) | A (0% ≤ substrate protein remaining % ≤ 80%)
7 | 60 to 80 | 80 to 100 | O=C1CCC(N2Cc3cc(CN4CCN(c5ncccn5)CC4)ccc3C2=S)C(=O)N1 (stereo not drawn) [GT-09252, 3-(5-((4-(pyrimidin-2-yl)piperazin-1-yl)methyl)-1-thioxoisoindolin-2-yl)piperidine-2,6-dione] | – | – | – | – | – | – | B (80%< substrate protein remaining %≤ 100%) | B (80%< substrate protein remaining %≤ 100%) | B (80%< substrate protein remaining %≤ 100%) | A (0% ≤ substrate protein remaining % ≤ 80%) | B (80%< substrate protein remaining %≤ 100%) | B (80%< substrate protein remaining %≤ 100%)
8 | 53 to 60 | 80 to 100 | O=C1CCC(N2Cc3cc(CN4CCN(c5nsc6cc(F)ccc56)CC4)ccc3C2=S)C(=O)N1 (stereo not drawn) [GT-09259, 3-(5-((4-(6-fluorobenzo[d]isothiazol-3-yl)piperazin-1-yl)methyl)-1-thioxoisoindolin-2-yl)piperidine-2,6-dione] | – | – | – | – | – | – | B (80%< substrate protein remaining %≤ 100%) | B (80%< substrate protein remaining %≤ 100%) | B (80%< substrate protein remaining %≤ 100%) | B (80%< substrate protein remaining %≤ 100%) | B (80%< substrate protein remaining %≤ 100%) | A (0% ≤ substrate protein remaining % ≤ 80%)
9 | 60 to 80 | 80 to 100 | O=C1CCC(N2Cc3cc(CN4CCC(c5noc6ccccc56)CC4)ccc3C2=S)C(=O)N1 (stereo not drawn) [GT-09266, 3-(5-((4-(benzo[d]isoxazol-3-yl)piperidin-1-yl)methyl)-1-thioxoisoindolin-2-yl)piperidine-2,6-dione] | – | – | – | – | – | – | B (80%< substrate protein remaining %≤ 100%) | B (80%< substrate protein remaining %≤ 100%) | B (80%< substrate protein remaining %≤ 100%) | B (80%< substrate protein remaining %≤ 100%) | B (80%< substrate protein remaining %≤ 100%) | A (0% ≤ substrate protein remaining % ≤ 80%)

Row | SMILES | inhibition at 0.5 µM [1] [%] | inhibition at 2 µM [1] [%] | IKZF3 substrate protein remaining % (IKZF3; [2]) | CK1α substrate protein remaining % (CK1α; [2]) | Wee1 substrate protein remaining % (WEE1; [2]) | IKZF2 substrate protein remaining % (IKZF2; [2]) | IKZF 1 substrate protein remaining % (IKZF1; [2]) | GSPT1 substrate protein remaining % (GSPT1; [2]) | IKZF3 substrate protein remaining % (IKZF3; [3]) | CK1α substrate protein remaining % (CK1α; [3]) | Wee1 substrate protein remaining % (WEE1; [3]) | IKZF2 substrate protein remaining % (IKZF2; [3]) | IKZF 1 substrate protein remaining % (IKZF1; [3]) | GSPT1 substrate protein remaining % (GSPT1; [3])
10 | O=C1CCC(N2Cc3cc(CN4CCC(n5cnc6cc(F)ccc65)CC4)ccc3C2=S)C(=O)N1 (stereo not drawn) [GT-09262, 3-(5-((4-(5-fluoro-1H-benzo[d]imidazol-1-yl)piperidin-1-yl)methyl)-1-thioxoisoindolin-2-yl)piperidine-2,6-dione] | 53 to 60 | 80 to 100 | – | – | – | – | – | – | B (80%< substrate protein remaining %≤ 100%) | B (80%< substrate protein remaining %≤ 100%) | B (80%< substrate protein remaining %≤ 100%) | B (80%< substrate protein remaining %≤ 100%) | B (80%< substrate protein remaining %≤ 100%) | A (0% ≤ substrate protein remaining % ≤ 80%)
11 | O=C1CCC(N2Cc3cc(CN4CCC(n5c(=O)[nH]c6cc(F)ccc65)CC4)ccc3C2=S)C(=O)N1 (stereo not drawn) [GT-09263, 3-(5-((4-(5-fluoro-2-oxo-2,3-dihydro-1H-benzo[d]imidazol-1-yl)piperidin-1-yl)methyl)-1-thioxoisoindolin-2-yl)piperidine-2,6-dione] | 60 to 80 | 80 to 100 | – | – | – | – | – | – | B (80%< substrate protein remaining %≤ 100%) | B (80%< substrate protein remaining %≤ 100%) | B (80%< substrate protein remaining %≤ 100%) | B (80%< substrate protein remaining %≤ 100%) | B (80%< substrate protein remaining %≤ 100%) | A (0% ≤ substrate protein remaining % ≤ 80%)
12 | O=C1CCC(N2Cc3cc(CN4CCC(c5cccc6c(F)cccc56)CC4)ccc3C2=S)C(=O)N1 (stereo not drawn) [GT-09275, 3-(5-((4-(5-fluoronaphthalen-1-yl)piperidin-1-yl)methyl)-1-thioxoisoindolin-2-yl)piperidine-2,6-dione] | 30 to 40 | 60 to 80 | – | – | – | – | – | – | B (80%< substrate protein remaining %≤ 100%) | B (80%< substrate protein remaining %≤ 100%) | B (80%< substrate protein remaining %≤ 100%) | B (80%< substrate protein remaining %≤ 100%) | B (80%< substrate protein remaining %≤ 100%) | A (0% ≤ substrate protein remaining % ≤ 80%)
